From US20070093520A1, “Method of treatment of diarrhea-predominant irritable bowel syndrome in a subject” (priority 2005, published 2007)

Tested on: diarrhea-predominant IBS subjects
Test: 3007 Study: open-label 52-week safety study, adverse events and withdrawals
Details: C/C group

**Q.** What does the source list for Cc1nccn1C[C@H]1CCc2c(c3cccc4c3n2CCC4)C1=O [cilansetron, (R)-(−)-4,5,6,8,9,10-hexahydro-10-[(2-methyl-1H-imidazol-1-yl)methyl]-11H-pyrido-[3,2,1-jk]-carbazol-11-one]?
**A.** TEAE: Abdominal Therapeutic Procedures NEC: 0 n (%); TEAE: Abdominoplasty: 0 n (%); TEAE: Abnormal Chest Sounds NOS: 0 n (%); TEAE: Acne NOS: 1 (<1%) n (%); TEAE: Acnes: 1 (<1%) n (%); TEAE: Acquired Hypothyroidism: 1 (<1%) n (%); TEAE: Acrochordons: 0 n (%); TEAE: Adenomyosis*: 1 (<1%) n (%); TEAE: Age Related Issues: 0 n (%); TEAE: Allergic Conditions NEC: 1 (<1%) n (%); TEAE: Allergies to Foods, Food Additives, Drugs and Other Chemicals: 1 (<1%) n (%); TEAE: Allergy to Insect Sting: 0 n (%); TEAE: Alopecia: 0 n (%); TEAE: Alopecias: 0 n (%); TEAE: Amenorrhoea NOS*: 1 (<1%) n (%); TEAE: Anaemia NOS: 0 n (%); TEAE: Anaemias NEC: 0 n (%); TEAE: Angina Pectoris: 3 (1%) n (%); TEAE: Anorexia: 1 (<1%) n (%); TEAE: Anxiety: 3 (1%) n (%); TEAE: Anxiety Aggravated: 2 (<1%) n (%); TEAE: Anxiety Symptoms: 5 (2%) n (%); TEAE: Apocrine and Eccrine Gland Disorders: 0 n (%); TEAE: Appetite Disorders: 1 (<1%) n (%); TEAE: Arrhythmia NOS: 1 (<1%) n (%); TEAE: Asthenic Conditions: 8 (3%) n (%); TEAE: Asthma Aggravated: 1 (<1%) n (%); TEAE: Asthma NOS: 1 (<1%) n (%); TEAE: Atopic Disorders: 4 (2%) n (%); TEAE: Atrial Fibrillation: 1 (<1%) n (%); TEAE: Atrioventricular Block First Degree: 1 (<1%) n (%); TEAE: Basal Cell Carcinoma: 2 (<1%) n (%); TEAE: Behaviour and Socialisation Disturbances: 0 n (%); TEAE: Benign Ovarian Tumour*: 0 n (%); TEAE: Biliary Tract Disorder NOS: 0 n (%); TEAE: Binocular Eye Movement Disorder NOS: 0 n (%); TEAE: Bladder Disorders NEC: 0 n (%); TEAE: Bladder Infections and Inflammations: 0 n (%); TEAE: Bladder Prolapse: 0 n (%); TEAE: Bladder and Urethral Symptoms: 6 (2%) n (%); TEAE: Blood and Lymphatic System Disorders: 3 (1%) n (%); TEAE: Bone Neoplasm Malignant: 1 (<1%) n (%); TEAE: Bone Neoplasms Malignant (Excl Sarcomas): 1 (<1%) n (%); TEAE: Bradyarrhythmia: 0 n (%); TEAE: Breast Calcifications*: 0 n (%); TEAE: Breast Cancer NOS*: 0 n (%); TEAE: Breast Disorder NOS*: 0 n (%); TEAE: Breast Disorders NEC*: 1 (<1%) n (%); TEAE: Breast Mass NOS*: 1 (<1%) n (%); TEAE: Breast and Nipple Neoplasms Malignant*: 0 n (%); TEAE: Breath Sounds Decreased: 1 (<1%) n (%); TEAE: Breathing Abnormalities: 2 (<1%) n (%); TEAE: Bronchospasm and Obstruction: 3 (1%) n (%); TEAE: Bruising, Ecchymosis and Purpura: 1 (<1%) n (%); TEAE: Bundle Branch Block Right: 1 (<1%) n (%); TEAE: Calculus Renal NOS: 3 (1%) n (%); TEAE: Calculus Ureteric: 1 (<1%) n (%); TEAE: Cardiac Conduction Disorders: 2 (<1%) n (%); TEAE: Cardiac Disorders: 10 (4%) n (%); TEAE: Cardiac Fibrillation NOS: 0 n (%); TEAE: Cardiac Flutter: 0 n (%); TEAE: Cardiac Signs and Symptoms NEC: 2 (<1%) n (%); TEAE: Cataract Unilateral: 1 (<1%) n (%); TEAE: Cataracts (Excl Congenital): 1 (<1%) n (%); TEAE: Cerumen Impaction: 2 (<1%) n (%); TEAE: Chest Discomfort: 0 n (%); TEAE: Chest Pain: 3 (1%) n (%); TEAE: Chest Tightness: 1 (<1%) n (%); TEAE: Cholecystitis and Cholelithiasis: 2 (<1%) n (%); TEAE: Cholelithiasis: 2 (<1%) n (%); TEAE: Congenital, Familial and Genetic Disorders: 0 n (%); TEAE: Conjunctival Infections, Irritations and Inflammations: 2 (<1%) n (%); TEAE: Conjunctivitis: 1 (<1%) n (%); TEAE: Conjunctivitis Allergic: 1 (<1%) n (%); TEAE: Contusion: 1 (<1%) n (%); TEAE: Cough: 5 (2%) n (%); TEAE: Coughing and Associated Symptoms: 6 (2%) n (%); TEAE: Cyst NOS: 1 (<1%) n (%); TEAE: Cystitis Interstitial: 0 n (%); TEAE: Dacryostenosis Acquired: 1 (<1%) n (%); TEAE: Deafness NOS: 1 (<1%) n (%); TEAE: Dehydration: 1 (<1%) n (%); TEAE: Depression: 4 (2%) n (%); TEAE: Depression Aggravated: 3 (1%) n (%); TEAE: Depressive Disorders: 7 (3%) n (%); TEAE: Dermal and Epidermal Conditions NEC: 1 (<1%) n (%); TEAE: Dermatitis Allergic: 0 n (%); TEAE: Dermatitis Ascribed to Specific Agent: 0 n (%); TEAE: Dermatitis Contact: 1 (<1%) n (%); TEAE: Dermatitis Medicamentosa: 0 n (%); TEAE: Dermatitis NOS: 0 n (%); TEAE: Dermatitis and Eczema: 2 (<1%) n (%); TEAE: Dermographism: 0 n (%); TEAE: Diabetes Mellitus (Incl Subtypes): 2 (<1%) n (%); TEAE: Diabetes Mellitus Aggravated: 1 (<1%) n (%); TEAE: Diabetes Mellitus Non-Insulin-Dependent: 1 (<1%) n (%); TEAE: Disturbances in Initiating and Maintaining Sleep: 6 (2%) n (%); TEAE: Drug Hypersensitivity: 1 (<1%) n (%); TEAE: Dry Eye NOS: 2 (<1%) n (%); TEAE: Dysfunctional Uterine Bleeding*: 1 (<1%) n (%); TEAE: Dyshidrosis: 0 n (%); TEAE: Dyspnoea NOS: 2 (<1%) n (%); TEAE: Dysuria: 1 (<1%) n (%); TEAE: Ear Disorders NEC: 1 (<1%) n (%); TEAE: Ear Pain: 1 (<1%) n (%); TEAE: Ear and Labyrinth Disorders: 6 (2%) n (%); TEAE: Eczema: 1 (<1%) n (%); TEAE: Elevated Cholesterol: 3 (1%) n (%); TEAE: Endocrine Disorders: 2 (<1%) n (%); TEAE: Endometriosis*: 2 (1%) n (%); TEAE: Erythema: 1 (<1%) n (%); TEAE: Erythemas: 1 (<1%) n (%); TEAE: External Ear Disorders NEC: 2 (<1%) n (%); TEAE: Eye Disorders: 8 (3%) n (%); TEAE: Fall: 2 (<1%) n (%); TEAE: Fatigue: 7 (3%) n (%); TEAE: Fatigue Aggravated: 1 (<1%) n (%); TEAE: Febrile Disorders: 2 (<1%) n (%); TEAE: Fibroma NOS: 0 n (%); TEAE: Fluid Intake Increased: 0 n (%); TEAE: Fluid in Middle Ear: 1 (<1%) n (%); TEAE: Flushing: 1 (<1%) n (%); TEAE: Food Allergy: 0 n (%); TEAE: General Disorders and Administration Site Conditions: 23 (9%) n (%); TEAE: General Signs and Symptoms NEC: 6 (2%) n (%); TEAE: Gilbert's Syndrome: 0 n (%); TEAE: Glucose Tolerance Impaired: 0 n (%); TEAE: Glycosuria: 0 n (%); TEAE: Goitre: 1 (<1%) n (%); TEAE: Gout: 2 (<1%) n (%); TEAE: Haematoma NOS: 1 (<1%) n (%); TEAE: Haematuria: 4 (2%) n (%); TEAE: Hallucination NOS: 0 n (%); TEAE: Hallucination, Auditory: 0 n (%); TEAE: Hand Fracture: 0 n (%); TEAE: Hearing Losses: 1 (<1%) n (%); TEAE: Hepatitis NOS: 1 (<1%) n (%); TEAE: Hepatobiliary Disorders: 4 (2%) n (%); TEAE: Hepatobiliary Signs and Symptoms: 1 (<1%) n (%); TEAE: Hepatocellular Damage and Hepatitis NEC: 1 (<1%) n (%); TEAE: Hepatosplenomegaly NOS: 1 (<1%) n (%); TEAE: Hernia NOS: 0 n (%); TEAE: Hernia Repair NOS: 1 (<1%) n (%); TEAE: Hernia Repairs: 1 (<1%) n (%); TEAE: Hernias NEC: 0 n (%); TEAE: Hot Flushes NOS: 1 (<1%) n (%); TEAE: Hypercholesterolaemia: 3 (1%) n (%); TEAE: Hyperglycaemia NOS: 0 n (%); TEAE: Hyperglycaemic Conditions NEC: 0 n (%); TEAE: Hyperkeratoses: 0 n (%); TEAE: Hyperkeratosis: 0 n (%); TEAE: Hyperlipidaemia NOS: 1 (<1%) n (%); TEAE: Hyperlipidaemias NEC: 1 (<1%) n (%); TEAE: Hypersensitivity NOS: 1 (<1%) n (%); TEAE: Hypertension Aggravated: 1 (<1%) n (%); TEAE: Hypertension NOS: 7 (3%) n (%); TEAE: Hypotension NOS: 0 n (%); TEAE: Immune System Disorders: 5 (2%) n (%); TEAE: Inborn Errors of Bilirubin Metabolism: 0 n (%); TEAE: Influenza Like Illness: 3 (1%) n (%); TEAE: Ingrowing Nail: 0 n (%); TEAE: Inner Ear Disorders NEC: 1 (<1%) n (%); TEAE: Inner Ear Infections and Inflammations: 2 (<1%) n (%); TEAE: Inner Ear Signs and Symptoms: 1 (<1%) n (%); TEAE: Insomnia: 5 (2%) n (%); TEAE: Insomnia Exacerbated: 1 (<1%) n (%); TEAE: Intermenstrual Bleeding*: 1 (<1%) n (%); TEAE: Irritability: 0 n (%); TEAE: Ischaemic Coronary Artery Disorders: 4 (2%) n (%)
